According to US20230416225A1, “DIAMINOPYRIMIDINE CARBOXAMIDE INHIBITORS OF HPK1” (MERCK SHARP & DOHME LLC, priority 2020, published 2023):

Target: T1, Human HPK1, catalytic domain (Homo sapiens, UniProt Q92918)
T1 construct: purchased Carna
T1 sequence (Q92918 1-346): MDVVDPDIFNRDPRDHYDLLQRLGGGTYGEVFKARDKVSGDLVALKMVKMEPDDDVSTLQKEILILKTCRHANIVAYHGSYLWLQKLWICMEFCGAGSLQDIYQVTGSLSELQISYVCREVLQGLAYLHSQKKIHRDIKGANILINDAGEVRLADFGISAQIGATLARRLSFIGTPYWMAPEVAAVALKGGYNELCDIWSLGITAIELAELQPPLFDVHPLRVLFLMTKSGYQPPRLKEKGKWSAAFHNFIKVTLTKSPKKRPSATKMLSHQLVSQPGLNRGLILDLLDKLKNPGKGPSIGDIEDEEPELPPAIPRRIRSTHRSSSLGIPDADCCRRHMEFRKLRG
Assay: HPK1-SLP76 TR-FRET assay
Assay type: biochemical
Settings: 75 pM HPK1, 10 uM ATP, 10 nM SLP76, 30 min compound pre-incubation

Row | SMILES | IC50 [nM]
1 | Cn1cc(Nc2ncc(C(N)=O)c(Nc3cccc4c3CCNC4=O)n2)cn1 [Example 7-44, 2-[(1-methyl-1H-pyrazol-4-yl)amino]-4-[(1-oxo-1,2,3,4-tetrahydroisoquinolin-5-yl)amino]pyrimidine-5-carboxamide] | 4.69
2 | COc1cc2c(cc1Nc1ncc(C(N)=O)c(Nc3ccccc3-c3nccs3)n1)CN(C)CC2 [Example 14-2, 2-[(6-methoxy-2-methyl-1,2,3,4-tetrahydroisoquinolin-7-yl)amino]-4-{[2-(1,3-thiazol-2-yl)phenyl]amino}pyrimidine-5-carboxamide] | 0.26
3 | COc1cc2c(cc1Nc1ncc(C(N)=O)c(Nc3ccccc3Br)n1)CN(CC(F)F)CC2 [Example 10-3, 4-((2-bromophenyl)amino)-2-((2-(2,2-difluoroethyl)-6-methoxy-1,2,3,4-tetrahydroisoquinolin-7-yl)amino)pyrimidine-5-carboxamide] | 28.9
4 | COc1cc2c(cc1Nc1ncc(C(N)=O)c(Nc3cccc4c3CCNC4=O)n1)CN(C)CC2 [Example 7-27, 2-[(6-methoxy-2-methyl-1,2,3,4-tetrahydroisoquinolin-7-yl)amino]-4-[(1-oxo-1,2,3,4-tetrahydroisoquinolin-5-yl)amino]pyrimidine-5-carboxamide] | 0.13
5 | COc1cc2c(cc1Nc1ncc(C(N)=O)c(Nc3cc(F)ccc3F)n1)CN(C)CC2 [Example 4-11, 4-[(2,5-difluorophenyl)amino]-2-[(6-methoxy-2-methyl-1,2,3,4-tetrahydroisoquinolin-7-yl)amino]pyrimidine-5-carboxamide] | 0.55
6 | COc1cc2c(cc1Nc1ncc(C(N)=O)c(Nc3ccccc3Br)n1)CN(S(=O)(=O)C(C)C)CC2 [Example 10-7, 4-[(2-bromophenyl)amino]-2-({6-methoxy-2-[(propan-2-yl)sulfonyl]-1,2,3,4-tetrahydroisoquinolin-7-yl}amino)pyrimidine-5-carboxamide] | 52.6
7 | COc1cc2c(cc1Nc1ncc(C(N)=O)c(Nc3ccc(F)cc3F)n1)CN(C)CC2 [Example 4-10, 4-[(2,4-difluorophenyl)amino]-2-[(6-methoxy-2-methyl-1,2,3,4-tetrahydroisoquinolin-7-yl)amino]pyrimidine-5-carboxamide] | 1.34
8 | CNCc1ccccc1Nc1nc(Nc2cc3c(cc2OC)CCN(C)C3)ncc1C(N)=O [Example 2-4, 2-[(6-methoxy-2-methyl-1,2,3,4-tetrahydroisoquinolin~7-yl)amino]-4-({2-[(methylamino)methyl]-phenyl}amino)pyrimidine-5-carboxamide] | 0.63
9 | NC(=O)c1cnc(Nc2cccc3c2OCC3)nc1Nc1ccccc1Br [Example 7-96, 4-[(2-bromophenyl)amino]-2-[(2,3-dihydro-1-benzofuran-7-yl)amino]pyrimidine-5-carboxamide] | 713
10 | CN1CCc2cc(F)c(Nc3ncc(C(N)=O)c(Nc4c(F)cccc4C(F)(F)F)n3)cc2C1 [Example 4-29, 2-[(6-fluoro-2-methyl-1,2,3,4-tetrahydroisoquinolin-7-yl)amino]-4-{[2-fluoro-6-(trifluoromethyl)phenyl]amino} pyrimidine-5-carboxamide] | 0.2
11 | COc1cc2c(cc1Nc1ncc(C(N)=O)c(Nc3cccc4c3CCN(C(C)=O)C4)n1)CN(C)CC2 [Example 15-1, 4-[(2-acetyl-1,2,3,4-tetrahydroisoquinolin-5-yl)amino]-2-[(6-methoxy-2-methyl-1,2,3,4-tetrahydroisoquinolin-7-yl)amino]pyrimidine-5-carboxamide] | 0.48
12 | COc1cc2c(cc1Nc1ncc(C(N)=O)c(Nc3cccc(CN)c3)n1)CN(C)CC2 [Example 2-2, 4-{[3-(aminomethyl)phenyl]-amino}-2-[(6-methoxy-2-methyl-1,2,3,4-tetrahydroisoquinolin-7-yl)amino]pyrimidine-5-carboxamide] | 0.34
13 | COc1cc2c(cc1Nc1ncc(C(N)=O)c(Nc3cccc4c3CCN(C)C4=O)n1)CN(C)CC2 [Example 7-35, 2-[(6-methoxy-2-methyl-1,2,3,4-tetrahydroisoquinolin-7-yl)amino]-4-[(2-methyl-1-oxo-1,2,3,4-tetrahydroisoquinolin-5-yl)amino]pyrimidine-5-carboxamide] | 1.49
14 | COc1ccc(C(N)=O)cc1Nc1ncc(C(N)=O)c(Nc2ccccc2Br)n1 [Example 7-95, 4-[(2-bromophenyl)amino]-2-[(5-carbamoyl-2-methoxyphenyl)amino]pyrimidine-5-carboxamide] | 548
15 | COc1cc2c(cc1Nc1ncc(C(N)=O)c(Nc3ccccc3Br)n1)CN(C(=O)C1(C)CCC1)CC2 [Example 12-8, 4-[(2-bromophenyl)amino]-2-{[6-methoxy-2-(1-methylcyclobutane-1-carbonyl)-1,2,3,4-tetrahydroisoquinolin-7-yl]amino}pyrimidine-5-carboxamide] | 344
16 | COc1cc2c(cc1Nc1ncc(C(N)=O)c(Nc3cccc4c3CCNC4)n1)CN(C)CC2 [Example 7-4, 2-[(6-methoxy-2-methyl-1,2,3,4-tetrahydroisoquinolin-7-yl)amino]-4-[(1,2,3,4-tetrahydroisoquinolin-5-yl)amino]pyrimidine-5-carboxamide] | 0.07
17 | CCOc1ccccc1Nc1nc(Nc2cc3c(cc2OC)CCN(C)C3)ncc1C(N)=O [Example 7-112, 4-[(2-ethoxyphenyl)amino]-2-[(6-methoxy-2-methyl-1,2,3,4-tetrahydroisoquinolin-7-yl)amino]pyrimidine-5-carboxamide] | 0.03
18 | COc1cc2c(cc1Nc1ncc(C(N)=O)c(Nc3cccc4nnc(C)cc34)n1)CN(C)CC2 [Example 7-6, 2-[(6-methoxy-2-methyl-1,2,3,4-tetrahydroisoquinolin-7-yl)amino]-4-[(3-methylcinnolin-5-yl)amino]pyrimidine-5-carboxamide] | 70.5
19 | COc1cc2c(cc1Nc1ncc(C(N)=O)c(Nc3c(F)ccc(C)c3Cl)n1)CN(C)CC2 [Example 4-16] | 0.1
20 | Cc1cccc(F)c1Nc1nc(Nc2cnn(CC3CC3)c2)ncc1C(N)=O [Example 4-22, 2-{[1-(cyclopropylmethyl)-1H-pyrazol-4-yl]amino}-4-[(2-fluoro-6-methylphenyl)amino] pyrimidine-5-carboxamide] | 384
21 | NC(=O)c1cnc(Nc2cnn(CC3CC3)c2)nc1Nc1cccc2c1CCNC2 [Example 7-8, 2-{[1-(cyclopropylmethyl)-1H-pyrazol-4-yl]amino}-4-[(1,2,3,4-tetrahydroisoquinolin-5-yl)amino]pyrimidine-5-carboxamide] | 1.48

Next, values leading:

Row | IC50 [nM] | SMILES
22 | 0.25 | COc1cc2c(cc1Nc1ncc(C(N)=O)c(NC3CC4C5CCC(C5)C34)n1)CN(C)CC2 (stereo not shown) [Example 26-15, 2-[(6-methoxy-2-methyl-1,2,3,4-tetrahydroisoquinolin-7-yl)amino]-4-[(tricyclo[4.2.1.0~2,5~]nonan-3-yl)amino]pyrimidine-5-carboxamide]
23 | 881 | NC(=O)c1cnc(Nc2ccccc2OC(F)F)nc1Nc1cccc2c1CCNC2=O [Example 25-27, 2-{[2-(difluoromethoxy)phenyl]amino}-4-[(1-oxo-1,2,3,4-tetrahydroisoquinolin-5-yl)amino]pyrimidine-5-carboxamide]
24 | 455 | Cc1ccc(C(F)(F)F)cc1Nc1ncc(C(N)=O)c(Nc2cccc3c2CCNC3=O)n1 [Example 25-32, 2-{[2-methyl-5-(trifluoromethyl)phenyl]amino}-4-[(1-oxo-1,2,3,4-tetrahydroisoquinolin-5-yl)amino]pyrimidine-5-carboxamide]
25 | 580 | NC(=O)c1cnc(Nc2ccc(F)c(Cl)c2)nc1Nc1cccc2c1CCNC2=O [Example 25-6, 2-[(3-chloro-4-fluorophenyl)amino]-4-[(1-oxo-1,2,3,4-tetrahydroisoquinolin-5-yl)amino]pyrimidine-S-carboxamide]
26 | 370 | Cn1cc([C@@H]2C[C@H]2C(=O)Nc2ncc(C(N)=O)c(Nc3ccccc3Br)n2)cn1 (racemic) [Example 22-1, 4-((2-bromophenyl)amino)-2-((trans)-2-(1-methyl-1H-pyrazol-4-yl)cyclopropane-1-carboxamido)pyrimidine-5-carboxamide]
27 | 1.95 | NC(=O)c1cnc(Nc2ccc(CC(F)(F)F)cc2)nc1Nc1cccc2c1CCNC2=O [Example 25-44, 4-[(1-oxo-1,2,3,4-tetrahydroisoquinolin-5-yl)amino]-2-{[4-(2,2,2-trifluoroethyl)phenyl]amino}pyrimidine-5-carboxamide]
28 | 77.8 | NC(=O)c1cnc(Nc2cccc3sccc23)nc1Nc1cccc2c1CCNC2=O [Example 25-43, 2-[(1-benzothiophen-4-yl)amino]-4-[(1-oxo-1,2,3,4-tetrahydroisoquinolin-5-yl)amino]pyrimidine-5-carboxamide]
29 | 106 | COc1cc2c(cc1Nc1ncc(C(N)=O)c(NC3CC4CCC(C3)N4)n1)CN(C)CC2 (stereo not shown) [Example 26-27, 4-[(8-azabicyclo[3.2.1]octan-3-yl)amino]-2-[(6-methoxy-2-methyl-1,2,3,4-tetrahydroisoquinolin-7-yl)amino]pyrimidine-5-carboxamide]
30 | 42.5 | COc1ccc2c(c1)C(Nc1nc(Nc3cc4c(cc3OC)CCN(C)C4)ncc1C(N)=O)CC2 (stereo not shown) [Example 26-69, 4-[(6-methoxy-2,3-dihydro-1H-inden-1-yl)amino]-2-[(6-methoxy-2-methyl-1,2,3,4-tetrahydroisoquinolin-7-yl)amino]pyrimidine-5-carboxamide]
31 | 468 | CCC1[C@@H](C(=O)Nc2ncc(C(N)=O)c(Nc3ccccc3Br)n2)[C@@H]1c1cnn(C)c1 (stereo partly drawn) [Example 22-2, 4-[(2-bromophenyl)amino]-2-{[(1R,3R)-2-ethyl-3-(1-methyl-1H-pyrazol-4-yl)cyclopropane-1-carbonyl]amino}pyrimidine-5-carboxamide]
